In patent publication US5455267A, “Chromone derivative, and aldose reductase inhibitor comprising said compound as active component” (Tsumura & Co., priority 1990, dated 1995):
Where a name gives a salt, the structure may show the parent alone. Read-outs that look alike come from different tables or passages of the source.

How the values were obtained:
[1] = biological target: T1, aldose reductase (Rattus norvegicus, UniProt P07943); assay: Determination of Aldose Reductase Activity (In Vitro); format: biochemical, rat (Wistar); settings: for inhibition at 10 µM: at the concentration of 10 μM, read-out: Inhibition rate %
T1 construct: The crystalline lenses were homogenized in 135 mM sodium-potassium-phosphate buffer (pH 7.0) and centrifuged; from tissue; host or cells: lens of 6 week-old Wistar rats (30,000 rpm supernatant of homogenate)
Description: 6 week-old Wistar rats were sacrificed under ether anesthesia, and immediately lenses were removed and stored at -20° C. The crystalline lenses were homogenized in 135 mM sodium-potassium-phosphate buffer (pH 7.0) and centrifuged for 30 min. at 30,000 rpm. The supernatant was used as an aldose-reductase solution. The above procedure was carried out at 4° C. The enzyme solution was stored at -20° C.
The measurement of aldose reductase activity was conducted according to the method as described by Duffane et al. (Biochemical Medicine, 32:99-105 (1984)).
That is, 100 gl of the above enzyme solution and 100 gl of a solution prepared by dissolving a compound obtained in the following example to a final concentration of from 1.0×10^-5 to 4.0×10^-7 M in dimethylsulfoxide (DMSO) were added to 800 gl of 135 mM sodium-potassium-phosphate buffer (pH 7.0) containing 100 mM lithium sulfate, 0.03 mM NADPH (reduced form of nicotinamide adeninc dinucleotide phosphate) and 20 mM glucose as a substrate. The sample was allowed to react for 30 min. at 30° C. The reaction was stopped by addition of 0.3 ml of 0.5N hydrochloric acid. The NADP (oxided form of nicotinamide adenine dinucleotide) formed during the above reaction was converted into a fluorescent substance by addition of 1 ml of 6N sodium hydroxide containing 10 mM imidazole. 30 min. thereafter, the sample was measured for fluorescence intensity at the fluorescence wavelength of 460 nm (excitation wavelength: 360 nm) using a fluorescence photometer F-4000 (manufactured by Hitachi, Ltd.) at room temperature. A sample containing DMSO in place of the present compound was used as a control, and its fluorescence intensity was determined in the same manner as above.
Aldose reductase is an enzyme to convert DL-glyceraldehyde or glucose into polyol in the presence of NADPH as a coenzyme. As this reaction proceeds, NADPH is converted into NADP, so that the smaller amount of NADP formed indicates higher inhibition of aldose reductase. […]

[2] = system: sorbitol contained in the sciatic nerves (aldose reductase); assay: Determination of Aldose Reductase Activity (In Vivo): sorbitol in sciatic nerves of STZ diabetic rats; parameters: species or system Wistar male rats; settings: Rattus norvegicus, po, 336 h, Table 3, sciatic nerve sorbitol, read-out: Repression rate %; for inhibition in vivo at 30 mg/kg: 30 mg/kg orally for 2 weeks; for inhibition in vivo at 50 mg/kg: 50 mg/Kg orally
Description: Streptozotocin (STZ) dissolved in 10 mM citrate buffer (pH 4.5) was administered intravenously to 6 week-old Wistar male rats […] in an amount of 65 mg/kg. 48 hours thereafter, blood was collected from the carotid […] of the rats. Rats with a blood glucose level of 200 mg/dl or more were classified as those with diabetes. Rats with a persistent high level of blood sugar were employed in the experiment. The blood glucose level was determined by the glucose oxidase method. 2 weeks after administration of STZ, a compound obtained in the following examples was suspended in purified water or 0.5% carboxy sodium cellulose solution. This solution was orally administered into a rat in an amount of 30 mg/kg for 2 weeks. 2 weeks after the adminstration, sciatic nerves were removed from the rat under ether anesthesia. The sciatic nerves were weighed and stored at -20° C. The amount of sorbitol contained in the sciatic nerves was determined as follows. That is, the sciatic nerves were subjected to extraction with 1 ml of purified water containing 10 gg/ml arabinitol at 100° C. for 20 min., followed by addition of 0.2 ml each of 0.2M barium hydroxide and 0.19M zinc sulfate. […] The resulting sample was […] then analyzed by gas chromatography. Sorbitol is an intermediate which occurs during convertion of glucose to fructose by aldose reductase, and this intermediate is accumulated together with fructose in the crystalline lenses and sciatic nerves, particularly under a high level of blood glucose. Therefore, the smaller amount of sorbitol formed indicates higher inhibition of aldose reductase.

[3] = biological target: T2, aldehyde reductase (Rattus norvegicus, UniProt P51635); assay: Ability of Selective Inhibition of Aldose Reductase (aldehyde reductase activity); format: biochemical; settings: for IC50: Table 4, rat kidney aldehyde reductase, 50 mM DL-glyceraldehyde, pH 7.0, read-out: 50% Inhibition conc [IC50 (M)] Aldehyde reductase
T2 construct: The supernatant thus obtained was subjected to 30-60% ammonium sulfate fractionation; from tissue; host or cells: rat kidney (30-60% ammonium sulfate fraction of homogenate supernatant, dialyzed)
T2 sequence (P51635 1-325): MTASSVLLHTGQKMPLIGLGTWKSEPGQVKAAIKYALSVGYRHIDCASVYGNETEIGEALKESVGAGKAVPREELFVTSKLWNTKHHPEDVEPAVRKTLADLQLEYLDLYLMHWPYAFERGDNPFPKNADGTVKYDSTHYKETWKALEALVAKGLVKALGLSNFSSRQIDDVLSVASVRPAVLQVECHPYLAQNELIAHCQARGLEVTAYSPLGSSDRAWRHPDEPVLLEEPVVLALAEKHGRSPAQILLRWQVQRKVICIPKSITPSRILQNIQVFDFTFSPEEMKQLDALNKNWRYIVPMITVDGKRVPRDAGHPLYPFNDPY
Description: From rats under ether anesthesia, the kidneys were removed and stored at -20 ° C. The kidneys were homogenized in 0.1M phosphate buffer (pH 7.2) containing 5 mM 2-mercaptoethanol (kidneys: buffer =1:10 (by volume)), followed by centrifugation (14,000 rpm, 20 min., 4° C.), whereby a supernatant was obtained. The supernatant thus obtained was subjected to 30-60% ammonium sulfate fractionation. The resulting precipitates were collected by centrifugation (9,200 rpm, 20 min., 4° C.) The precipitates were suspended in a buffer with the same composition as described above. This suspension was dialyzed overnight at 4° C. against a buffer with the same composition, so that a crude aldehyde reductase solution was obtained. The activity of aldehyde reductase was determined in the same manner as for aldose reductase except for use of 0.1M phosphate buffer (pH 7.0) and as substrate 50 mM DL-glyceraldehyde.
The ability of selective inhibition of aldose reductase was determined by dividing the thus obtained 50% inhibition concentration [IC50 (M)] of aldehyde reductase by the above 50% inhibition concentration [IC50 (M)]of aldose reductase.

[4] = Table 3, rat lens aldose reductase, 20 mM glucose, 30 min, 30° C, pH 7.0, read-out: 50% Inhibition Conc. [IC50 (M)]
[5] = Table 4, aldose reductase, read-out: 50% Inhibition conc [IC50 (M)] Aldose reductase

Row | inhibition at 10 µM ([1]; Table 3) [%] | IC50 [1, 4] [M] | IC50 [3] [M] | Compound | inhibition in vivo at 30 mg/kg [2] [%] | other results
1 | 98.7 | – | > 0.0001 | CCOc1c(OC)c(OC(C)C)cc2oc(Sc3ccc(O)cc3)cc(=O)c12 [Example 18, 5-ethoxy-2-(4-hydroxyphenylthio)-7-isopropoxy-6-methoxychromone] | – | IC50 [1, 5]: 1.8e-08 M; inhibition in vivo at 50 mg/kg [2]: 5.9%
2 | 98.3 | 3e-08 | > 0.0001 | COc1c(OC(C)C)cc2oc(Sc3ccc(O)cc3)cc(=O)c2c1OC [Example 22, 5,6-dimethoxy-2-(4-hydroxyphenylthio)-7-isopropoxychromone] | – | inhibition in vivo at 50 mg/kg [2]: 6.8%
3 | 93.2 | 6e-08 | > 0.0001 | CCC(CC)Oc1cc2oc(Sc3ccc(O)cc3)cc(=O)c2c(OC)c1OC [Example 25, 5,6-dimethoxy-7-(1-ethylpropoxy)-2-(4-hydroxyphenylthio)chromone] | – | inhibition in vivo at 50 mg/kg [2]: 16%
4 | 96.7 | 1.1e-07 | 0.0001 | CCC(CC)Oc1cc2oc(Sc3ccc(O)cc3)cc(=O)c2c(O)c1OC [Example 33, 7-(1-ethylpropoxy)-5-hydroxy-2-(4-hydroxyphenylthio)-6-methoxychromone] | – | –

Continued, compound first:

Row | Compound | inhibition at 10 µM ([1]; Table 3) [%] | IC50 [1, 4] [M] | IC50 [3] [M] | inhibition in vivo at 30 mg/kg [2] [%] | other results
5 | COc1c(O)cc2oc(Oc3ccc(O)cc3)cc(=O)c2c1O [Capillarisin, reference compound] | 81 | 1.6e-06 | – | – | inhibition in vivo at 100 mg/kg ([2]; 100 mg/kg orally): 18.9%
6 | CCC(CC)Oc1cc2oc(Sc3ccc(OC(=O)CN)cc3)cc(=O)c2c(OC)c1OC [Compound 1 obtained in Example 37, 7-(1-ethylpropoxy)-5,6-dimethoxy-2-(4-glycyloxyphenylthio)chromone hydrochloride] | – | – | – | 51.6 | –
7 | CCC(CC)Oc1cc2oc(Sc3ccc(OC(=O)c4ccc(CN5CCN(C)CC5)cc4)cc3)cc(=O)c2c(OC)c1OC [Compound 2 obtained in Example 39, 5,6-dimethoxy-7-(1-ethylpropoxy)-2-{4-[4-(4-methylpiperazinomethyl)benzoyloxy]phenylthio}chromone dihydrochloride] | – | – | – | 4.6 | –
8 | COc1c(O)cc2oc(Sc3ccc(O)cc3)cc(=O)c2c1O [Compound (Formula B), reference compound] | 94.5 | – | 1e-05 | – | IC50 [1, 5]: 1.8e-07 M; Ability of selective inhibition ([3]; IC50 of aldehyde reductase divided by IC50 of aldose reductase): 55.5
9 | COc1cc2oc(Sc3ccc(O)cc3)cc(=O)c2c(OC)c1OC [Example 1, 2-(4-hydroxyphenylthio)-5,6,7-trimethoxychromone] | 97.3 | 1.1e-07 | > 0.0001 | – | –
10 | CCC(C)Oc1cc2oc(Sc3ccc(O)cc3)cc(=O)c2c(OC(C)C)c1OC (stereo not drawn) [Example 16, 7-s-butoxy-2-(4-hydroxyphenylthio)-5-isopropoxy-6-methoxychromone] | 96.5 | 3.8e-08 | > 0.0001 | – | –
11 | CCC(C)Oc1cc2oc(Sc3ccc(O)cc3)cc(=O)c2c(OC)c1OC (stereo not drawn) [Example 23, 7-s-butoxy-5,6-dimethoxy-2-(4-hydroxyphenylthio)chromone] | 100 | 4.4e-08 | > 0.0001 | – | –
12 | COc1c(OC(C)C)cc2oc(Sc3ccc(OC(=O)CN)cc3)cc(=O)c2c1OC [Example 35, 5,6-dimethoxy-2-(4-glycyloxyphenylthio)-7-isopropoxychromone hydrochloride] | – | – | – | 43.7 | –
13 | CCOc1c(OC)c(OC(C)C)cc2oc(Sc3ccc(OC(=O)CN)cc3)cc(=O)c12 [Example 36, 5-ethoxy-2-(4-glycyloxyphenylthio)-7-isopropoxy-6-methoxychromone hydrochloride] | – | – | – | 12.3 | –
14 | CCC(CC)Oc1cc2oc(Sc3ccc(OC(=O)c4ccc(CN5CCN(C)CC5)cc4)cc3)cc(=O)c2c(O)c1OC [Example 40, 7-(1-ethylpropoxy)-5-hydroxy-2-{4-[4-(4-methylpiperazinomethyl)benzoyloxy]phenylthio}-6-methoxychromone dihydrochloride] | – | – | – | 27.9 | –
